The numbers were not newly measured in patent publication US20020028808A1, “Use of potassium channel agonists for the treatment of cancer” (priority 2000, published 2002), which cites them from elsewhere.

Data set [1] deals with T1, KATP-channels on pancreatic beta-cells (Homo sapiens, UniProt Q09428+Q14654).
T1 construct: KATP-channels on pancreatic beta-cells; host or cells: pancreatic beta-cells
The note with it: by activation of KATP-channels.

Data set [2] concerns adipose tissue of Zucker rats.
The test system of data set [3] is healthy individuals.
The test system of data set [4] is patients suffering from insulinoma and nesidioblastosis.

Structures are written as SMILES. Like-named read-outs stand apart in the source and are kept apart here.

T1 sequence (Q09428 whole entry): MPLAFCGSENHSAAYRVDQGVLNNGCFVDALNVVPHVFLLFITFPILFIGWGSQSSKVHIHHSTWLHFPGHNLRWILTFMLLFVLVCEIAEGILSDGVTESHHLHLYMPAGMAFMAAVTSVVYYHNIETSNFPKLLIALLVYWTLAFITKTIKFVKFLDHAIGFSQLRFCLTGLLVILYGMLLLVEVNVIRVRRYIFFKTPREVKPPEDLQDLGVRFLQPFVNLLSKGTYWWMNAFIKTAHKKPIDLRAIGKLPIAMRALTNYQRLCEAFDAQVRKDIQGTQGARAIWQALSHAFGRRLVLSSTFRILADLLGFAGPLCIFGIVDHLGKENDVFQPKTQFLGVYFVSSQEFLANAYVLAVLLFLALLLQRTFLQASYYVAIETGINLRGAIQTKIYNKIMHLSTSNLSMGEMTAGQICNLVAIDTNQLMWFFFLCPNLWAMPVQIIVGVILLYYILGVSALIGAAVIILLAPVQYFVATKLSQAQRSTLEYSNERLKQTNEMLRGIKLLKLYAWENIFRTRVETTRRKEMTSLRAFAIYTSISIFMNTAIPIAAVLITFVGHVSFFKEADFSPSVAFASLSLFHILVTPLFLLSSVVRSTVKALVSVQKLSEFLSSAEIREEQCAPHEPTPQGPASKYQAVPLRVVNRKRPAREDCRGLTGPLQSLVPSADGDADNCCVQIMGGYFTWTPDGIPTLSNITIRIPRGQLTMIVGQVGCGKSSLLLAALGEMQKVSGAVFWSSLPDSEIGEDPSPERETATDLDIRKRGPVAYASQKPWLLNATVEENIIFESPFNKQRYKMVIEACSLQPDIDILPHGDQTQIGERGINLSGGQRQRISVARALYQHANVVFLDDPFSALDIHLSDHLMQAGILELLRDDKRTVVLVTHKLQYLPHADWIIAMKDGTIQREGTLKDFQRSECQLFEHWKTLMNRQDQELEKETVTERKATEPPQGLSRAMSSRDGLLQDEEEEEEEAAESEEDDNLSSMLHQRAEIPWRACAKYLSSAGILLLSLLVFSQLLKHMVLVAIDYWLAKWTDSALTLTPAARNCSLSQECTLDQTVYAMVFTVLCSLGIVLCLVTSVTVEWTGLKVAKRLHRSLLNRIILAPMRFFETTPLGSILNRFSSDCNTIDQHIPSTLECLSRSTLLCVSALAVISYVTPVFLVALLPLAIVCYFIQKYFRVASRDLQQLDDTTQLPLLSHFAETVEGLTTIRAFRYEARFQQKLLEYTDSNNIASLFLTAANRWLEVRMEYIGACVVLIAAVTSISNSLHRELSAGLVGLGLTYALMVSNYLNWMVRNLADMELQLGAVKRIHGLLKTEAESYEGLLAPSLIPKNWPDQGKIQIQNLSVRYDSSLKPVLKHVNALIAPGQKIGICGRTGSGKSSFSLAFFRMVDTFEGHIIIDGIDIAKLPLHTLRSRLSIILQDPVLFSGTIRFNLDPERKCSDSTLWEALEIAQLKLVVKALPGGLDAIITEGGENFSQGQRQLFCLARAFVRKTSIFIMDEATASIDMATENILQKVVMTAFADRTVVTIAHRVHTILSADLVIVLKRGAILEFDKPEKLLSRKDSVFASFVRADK
T1 sequence (Q14654 whole entry): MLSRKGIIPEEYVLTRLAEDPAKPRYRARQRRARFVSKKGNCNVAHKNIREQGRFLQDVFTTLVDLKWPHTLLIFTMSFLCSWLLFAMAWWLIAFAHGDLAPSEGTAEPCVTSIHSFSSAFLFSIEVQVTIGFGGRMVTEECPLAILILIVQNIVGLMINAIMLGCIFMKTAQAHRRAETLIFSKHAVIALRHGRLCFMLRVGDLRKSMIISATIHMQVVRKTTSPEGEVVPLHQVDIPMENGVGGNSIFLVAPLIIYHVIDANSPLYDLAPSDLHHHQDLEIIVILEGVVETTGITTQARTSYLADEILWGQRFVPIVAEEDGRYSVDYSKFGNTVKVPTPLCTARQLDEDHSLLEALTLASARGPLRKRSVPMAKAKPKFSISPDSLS

Regarding `CC1=Nc2ccc(Cl)cc2S(=O)(=O)N1` [diazoxide, 7-chloro-3-methyl-2H-1,2,4-benzothiadiazine 1,1-dioxide], the insulin release result in data set [1] is “inhibit insulin release”. Also, the “leptin and lipid metabolising enzymes” value in data set [2] was “down-regulate leptin and lipid metabolising enzymes”. In addition, the “glucose stimulated insulin release” value in data set [3] is listed as “reduces glucose stimulated insulin release”. The abnormal hyperinsulinaemia result in data set [4] (nesidioblastosis (PHHI, persistent hyperinsulinaemia and hypoglycemia of infancy)) is on record as “ameliorates the abnormal hyperinsulinaemia”; in data set [4] (patients suffering from insulinoma) it was “ameliorates the abnormal hyperinsulinaemia”.
